Source: patent US10894076B2 (PEGBIO CO., LTD., priority 2015, dated 2021)

Columns and labels:
[1] = tested on: DIO mice; experiment: Long-term administration of PB-716 series conjugates, weight loss in DIO mice (Example 16); type: in vivo, C57BL/6 mice
Procedure: […] The continuous administration experiments was conducted for a total of 14 days. During the experimental period, the body weight and food intake of the mice were measured every day. Random blood sugar level was measured before the start of the experiment and after the complement of the experiment.

[2] = tested on: DIO mice; experiment: Long-term administration of PB-718, PB-119 and PB-708+PB-120, weight loss in DIO mice (Example 17); type: in vivo, C57BL/6 mice; conditions: 14 days
Procedure: The Victoza group was dosed once a day and the remaining groups were dosed once every 2 days. The continuous administration experiment was conducted for a total of 14 days. During the experimental period, the body weight and food intake of the mice were measured every day. Random blood sugar level was measured before the start of the experiment and after the complement of the experiment.

[3] = tested on: nonalcoholic steatohepatitis (NASH) model mice; experiment: Combination of PB-119 and PB-722 in nonalcoholic steatohepatitis (NASH) mouse model (Example 21); type: in vivo, C57/BL6J mice; conditions: 10 mg/kg orally once a day, 21 days
Excerpt: 30 C57/BL6J mice (purchased from Lingchang Biotechnology Co. Ltd., Shanghai, China) were used in this experiment. Twenty four of them were intraperitoneally injected with streptozotocin (STZ) one week after they were born and fed with high-fat diet (purchased from Research Diets, Inc) for five weeks to successfully create a nonalcoholic steatohepatitis (NASH) model. The other 6 were used as normal control and fed with normal diet. The administration started at the sixth week. […] The positive control group was orally administered once a day and the other groups were administered subcutaneously once every two days for 21 consecutive days. During the administration period, body weight was measured every day and the food intake was measured every two days. After the last day of administration, the animals were fasted overnight, and then weighed and euthanized. Serum and liver tissues were taken and the liver weights were measured. Serum glucose and insulin levels were detected. Liver tissue was fixed with formaldehyde solution, and tissue sections were made and stained with HE, oil red and Sirius red. The sections were examined and scored to determine the NASH index.

[4] = tested on: DIO mice; experiment: Long-term administration of PB-119 with PB-721 or PB-722, weight loss and lipids in DIO mice (Example 18); type: in vivo, C57BL/6 mice; conditions: for decrease of liver triglyceride content compared with model control group / decrease of serum total cholesterol content / serum triglyceride level: Day21; for decrease of cumulative food intake compared with model control group / body weight decrease compared with that before the administration: 21 days
Procedure: Each group was administered subcutaneously, once every two days, and the experiment lasted for 21 days with 11 administrations. During the experimental period, the body weight and food intake of the mice were measured every day. The blood sugar level was measured at Day1 and Day21, and the serum triglyceride serum, total cholesterol, liver triglyceride and other indexes were measured at Day21.

[5] = tested on: DIO mice; experiment: Combination of PB-119 and PB-722, weight loss in DIO mice, 21 days (Example 20); type: in vivo, C57BL/6 mice; conditions: 10 nmol/kg once every two days
Procedure: Male C57BL/6 mice (from the same source as described above) were fed with high-fat diet (45% kcal) for 22 weeks. […] 36 DIO mice were divided into 6 groups based on their body weight and random blood sugar level, with 6 mice per group. […] Except that administration was carried out twice a day in group 6, administration was carried out once every two days in other groups. The experiment was conducted for a total of 21 days for a continuous administration. The body weight and food intake of the mice were measured on the day of the administration, and random blood sugar level and fasting blood sugar level were measured on the second day after the last administration.
After 21 days of administration, an oral glucose tolerance experiment was performed. Mice were orally given 2.5 g/kg glucose solution, and random glucose level was measured at 0 min, 15 min, 30 min, 60 min and 120 min after sugar feeding.

Molecule: CCCCCCCCCCCCCCCC(=O)N[C@@H](CCC(=O)NCCCC[C@H](NC(=O)[C@H](C)NC(=O)[C@H](C)NC(=O)[C@H](CCC(N)=O)NC(=O)CNC(=O)[C@H](CCC(=O)O)NC(=O)[C@H](CC(C)C)NC(=O)[C@H](Cc1ccc(O)cc1)NC(=O)[C@H](CO)NC(=O)[C@H](CO)NC(=O)[C@@H](NC(=O)[C@H](CC(=O)O)NC(=O)[C@H](CO)NC(=O)[C@@H](NC(=O)[C@H](Cc1ccccc1)NC(=O)[C@@H](NC(=O)CNC(=O)[C@H](CCC(=O)O)NC(=O)[C@H](C)NC(=O)[C@@H](N)Cc1cnc[nH]1)[C@@H](C)O)[C@@H](C)O)C(C)C)C(=O)N[C@@H](CCC(=O)O)C(=O)N[C@@H](Cc1ccccc1)C(=O)N[C@H](C(=O)N[C@@H](C)C(=O)N[C@@H](Cc1c[nH]c2ccccc12)C(=O)N[C@@H](CC(C)C)C(=O)N[C@H](C(=O)N[C@@H](CCCNC(=N)N)C(=O)NCC(=O)N[C@@H](CCCNC(=N)N)C(=O)NCC(=O)O)C(C)C)[C@@H](C)CC)C(=O)O [Victoza, reference compound]
- body weight decrease compared with that before the administration ([1]; 200 μg/kg once a day, 14 days): 15.83%
- decrease of cumulative food intake relative to model control group ([1]; 200 μg/kg once a day, end of 14-day continuous administration): 50.82%
- body weight compared with control group by 96 hours after first administration ([1]; Victoza 200 μg/kg, single administration): no significant difference
- body weight decrease compared with that before the administration ([2]; 200 μg/kg once a day): 15.92%

Molecule: CCCc1nc2c(C)cc(-c3nc4ccccc4n3C)cc2n1Cc1ccc(-c2ccccc2C(=O)O)cc1 [telmisartan]
- blood sugar level [3]: no effect

Molecule: mPEG-23 KD-ppMAL--PB-740 (HSQGTFTSDYSKYLDSRRAQDFVQWLMNTC; mPEG-23KD-ppMAL conjugate) [PB-721]
- decrease of liver triglyceride content compared with model control group ([4]; 60 nmol/kg alone): 73.29%
- decrease of serum total cholesterol content ([4]; 60 nmol/kg alone): 60.86%
- serum triglyceride level ([4]; 60 nmol/kg alone): did not significantly improve
- decrease of cumulative food intake compared with model control group ([4]; 60 nmol/kg alone, s.c. once every two days): 2.36%
- body weight decrease compared with that before the administration ([4]; alone, 60 nmol/L as printed, s.c. once every two days): 21.65%

Molecule: mPEG-23 KD-ppMAL-PB-105 [PB-119]
- decrease of liver triglyceride content compared with model control group ([4]; 10 nmol/kg alone): 12.67%
- decrease of serum total cholesterol content ([4]; 10 nmol/kg alone): 39.35%
- serum triglyceride level ([4]; 10 nmol/kg alone): did not significantly improve
- decrease of cumulative food intake compared with model control group ([4]; 10 nmol/kg alone, s.c. once every two days): 25.14%
- body weight decrease compared with that before the administration ([4]; 10 nmol/kg s.c. once every two days): 14.37%
- body weight decrease compared with that before the administration [5]: 16.6%
- decrease in cumulative food intake compared with control group [5]: 14.4%
- fasting blood sugar level decrease compared with that before administration [5]: 17.9%
- body weight decrease compared with that before the administration ([2]; 210 μg/kg once every 2 days): 13.33%
- decrease of cumulative food intake compared with control group ([2]; 210 μg/kg once every 2 days): 39.95%
- decrease of random blood sugar level ([2]; 210 μg/kg once every 2 days): 27.27%
